Laboratory results taken from patent publication US20250320274A1, “RECOMBINANT HUMAN COLLAGEN AND METHOD FOR BUILDING SAME” (NANTONG UNIVERSITY, priority 2020, published 2025).
No end group written: not given here.

Assay: water solubility test
Assay type: physicochemical
Conditions: 32 mg in 8 ml of water, directly without stirring

GPAGARGNDGATGAAGPPGPTGPAGPPGFP
water solubility: clear solution with no color, no precipitation, and no floating matter
